According to patent US8008283B2, “Methods and compositions for the treatment of neuropsychiatric disorders” (Neurotherapeutics Pharma, Inc., priority 2005, dated 2011):

What was measured:
rat hippocampal slices = experiment: stimulation evoked after discharge activity in rat hippocampal slices (Example 68); type: cell-based
Procedure: Sprague-Dawley rats (males and females; 25-35 days old) were decapitated, the top of the skull was rapidly removed, and the brain chilled with ice-cold oxygenated slicing medium. […] A hemisphere of brain containing hippocampus was blocked and glued (cyanoacrylic adhesive) to the stage of a Vibroslicer (Frederick Haer, Brunsick, Me.). […] In the recording chamber, the slices were perfused with oxygenated recording medium at 34-35° C. All animal procedures were conducted in accordance with NIH and University of Washington animal care guidelines. In most slice experiments, simultaneous extracellular field electrode recordings were obtained from CA1 and CA3 areas. A bipolar tungsten stimulating electrode was placed on the Schaffer collaterals to evoke synaptically-driven field responses in CA1. Stimuli consisted of 100-300 μsec duration pulses at an intensity of four times the population-spike threshold. After discharges were evoked by a 2 second train of such stimuli delivered at 60 Hz.

hippocampal slices, CA1 = experiment: comparison of low-[Cl-]o and furosemide on blockade of high-[K+]o-induced epileptiform activity, CA1 field (Example 78); type: cell-based, rat
Source text: In all of the following experiments, [Cl^−]o was reduced by equimolar replacement of NaCl with Na^+-gluconate. Gluconate was used rather than other anion replacements for several reasons. […]; U.S. Pat. No. 5,902,732). Third, formate, acetate, and proprionate generate weak acids when employed as Cl^− substitutes and lead to a prompt fall in intracellular pH; gluconate remains extracellular and has not been reported to induce intracellular pH shifts. Fourth, for purposes of comparison we wished to use the same anion replacement that had been used in previous studies examining the effects of low-[Cl^−]o on activity-evoked changes of the ECS.
Sprague-Dawley adult rats were prepared as previously described. Briefly, transverse hippocampal slices, 400 μm thick, were cut using a vibrating cutter. Slices typically contained the entire hippocampus and subiculum. […] Normal ACSF contained (in mmol/l): 124 NaCl, 3 KCl, 1.25 NaH2PO4, 1.2 MgSO4, 26 NaHCO3, 2 CaCl2, and 10 dextrose.
Sharp-electrodes filled with 4 M potassium acetate were used for intracellular recordings from CA1 pyramidal cells. […] For stimulation of the Schaffer collateral pathway, a small monopolar electrode was placed on the surface of the slice midway between areas CA1 and CA3. […] AxoScope software (Axon Instruments Inc.) on a PC-computer was used for off-line analyses of data. […]

rats [1] = experiment: fear potentiated startle (FPS) test in rats; type: in vivo, rat
Procedure: Twenty-four rats received a 30 min period of habituation to the FPS apparatus. Twenty-four hours later, baseline startle amplitudes were collected. The rats were then divided into three matched groups based on baseline startle amplitudes. […] Groups 1 and 2 therefore consisted of 8 rats each, with Group 3 consisting of […]. Following baseline startle amplitude collection, 20 light/shock pairings were delivered on two sessions over two consecutive days (i.e., 10 light/shock pairings per day). […] Immediately following injections, startle amplitudes were assessed during startle alone trials and startle plus fear (light followed by startle) trials. Fear potentiated startle (light+startle amplitudes minus startle alone amplitudes) was compared between the treatment groups.
Animals were trained and tested in four identical stabilimeter devices (Med-Associates). Briefly, each rat was placed in a small Plexiglas cylinder. The floor of each stabilimeter consisted of four 6-mm-diameter stainless steel bars spaced 18 mm apart through which shock can be delivered. Cylinder movements result in displacement of an accelerometer where the resultant voltage is proportional to the velocity of the cage displacement. Startle amplitude is defined as the maximum accelerometer voltage that occurs during the first 0.25 sec after the startle stimulus is delivered. […] Each stabilimeter was enclosed in a ventilated, light-, and sound-attenuating box. All sound level measurements were made with a Precision Sound Level Meter. The noise of a ventilating fan attached to a sidewall of each wooden box produced an overall background noise level of 64 dB. The startle stimulus was a 50 ms burst of white noise (5 ms rise-decay time) generated by a white noise generator. The visual conditioned stimulus employed was illumination of a light bulb adjacent to the white noise source. The unconditioned stimulus was a 0.6 mA foot shock with duration of 0.5 sec, generated by four constant-current shockers located outside the chamber. The presentation and sequencing of all stimuli were under the control of the microcomputer.
FPS procedures consisted of 5 days of testing; during days 1 and 2 baseline startle responses were collected, days 3 and 4 light/shock pairings were delivered, day 5 testing for fear potentiated startle was conducted.
Matching: On the first two days all rats were placed in the Plexiglas cylinders and 3 min later presented with 30 startle stimuli at a 30 sec interstimulus interval.
Training: On the following 2 days, rats were placed in the Plexiglas cylinders. […] The shock was delivered during the last 0.5 sec of the 3.7 sec CSs at an average intertrial interval of 4 min (range, 3-5 min).
These initial startle stimuli were used to again habituate the rats to the acoustic startle stimuli. Thirty seconds after the last of these stimuli, each animal received 60 startle stimuli with half of the stimuli presented alone (startle alone trials) and the other half presented 3.2 sec after the onset of the 3.7 sec CS (CS-startle trials). All startle stimuli are presented at a mean 30 sec interstimulus interval, randomly varying between 20 and 40 sec.
Measures: The treatment groups were compared on the difference in startle amplitude between CS-startle and startle-alone trials (fear potentiation).
The therapeutic efficacy of several bumetanide analogs in alleviating anxiety was examined using the fear potentiated startle (FPS) test in rats as described above.

human patients = conditions: Haglund and Hochman, J. Neurophysiol. 2005; cited from earlier work
rats [2] = conditions: Granados-Soto et al. Pain 2005; cited from earlier work
human skin = conditions: Willis et al.; cited from earlier work
[3] = 2.5 mM furosemide, after 20 minutes of perfusion

NS(=O)(=O)c1cc(C(=O)O)c(NCc2ccco2)cc1Cl [furosemide]
CA1 field response to single test pulse (rat hippocampal slices; [3]): hyper-excitable field response
stimulation-evoked optical changes (rat hippocampal slices; [3]): blocked
electrical after discharge activity (rat hippocampal slices; 2.5 mM furosemide, after 20 minutes of perfusion, Schaffer collateral stimulation 60 Hz 2 s, CA1): blocked
recovery after washout (rat hippocampal slices; after 45 minutes of perfusion with normal bathing medium): restoration of initial response patterns
minimum concentration required to block both the after discharges and optical changes (rat hippocampal slices; dose-dependency experiments): 1.25 mM
response to electrical stimulation of the Schaffer collaterals (hippocampal slices, CA1; after the spontaneous bursting had been blocked): elicited hyperexcited responses
temporal sequence of effects on high-[K+]o-induced bursting, CA1 field (hippocampal slices, CA1; furosemide 2.5 and 5 mM, [K+]o 12 mM): an initial brief period of increased amplitude of field activity, and then blockade (reversible) of spontaneous field activity
difference score one week after treatment (rats [1]; compared with vehicle alone, FIG. 10): higher difference score
statistical difference from vehicle in difference score one week after treatment (rats [1]; error bars large for vehicle-treated animals): possibly a small difference
difference score (startle alone - fear potentiated startle) on the test day (rats [1]; i.v. in DMSO, furosemide 100 mg/kg, bumetanide 70 mg/kg, compared with vehicle alone, FIG. 8): statistically significantly lower difference score
epileptic activity and normal brain activity in humans (human patients): able to block epileptic activity in humans while not affecting normal brain activity
formalin-induced nociception (rats [2]): reduced
sensory nerve activation, itch and flare responses induced by histamine (human skin): inhibit sensory nerve activation to reduce the itch and flare responses
